Marks after values point to notes of the source that are not given here.
Assays:
Assay type in all cases: in vivo
pigs [1] = assay: Japanese color score of pork loin in swine feeding trial
Method: (§1) Applicants assessed the effects of gamma-tocopherol supplementation on meat quality in an experiment in which pork from pigs fed one of three dietary concentrations of gamma-tocopherol was compared to pork from pigs fed either no supplemental tocopherol in excess of amounts needed to support growth and development, or one of three dietary concentrations of alpha-tocopherol.
(§2) Young pigs were fed a diet containing 15 IU/kg feed (=15 mg/kg feed=[…]) vitamin E (in the form of alpha-tocopherol acetate) up to 120 pounds. Upon reaching 120 pounds, the pigs were randomly assigned to treatments using weight as a blocking factor. Sixteen pigs were allocated to the control diet, while thirteen pigs were allocated to each test diet. Treatments consisted of typical corn-soybean meal based diets with three levels of dietary tocopherol: (1) Control diet (15 mg/kg feed alpha-tocopherol acetate); (2) diets supplemented with 150, 300 or 450 mg/kg feed alpha-tocopherol acetate; and (3) diets supplemented with 150, 300 or 450 mg/kg feed gamma-tocopherol. Diets were formulated to provide adequate levels of all nutrients and fed in four phases.
(§3) The levels of alpha-tocopherol supplementation chosen were those previously shown to improve meat quality and the pigs consuming these diets were used as positive controls. Pigs consuming diets without additional supplementation of alpha or gamma-tocopherol were used as negative controls. Pork quality was assessed using standard methods, including pH, Japanese color score, oxidative stability, retail display appearance and Minolta color values.
(§4) The trial was terminated when the average weight of a treatment replicate reached 260 pounds (minimum of 60 days). Standard carcass data (hot carcass weight, backfat, loin depth and lean) were collected. In addition to the standard carcass data collected at the slaughter plant, color, pH, marbling, firmness and Hunter Lab data were collected. Loin and ham samples were also collected for determination of gamma-tocopherol concentration.
(§5) Data were analyzed using the GLM procedure of SAS. Due to a limited number of observations from the 150 IU alpha-tocopherol treatment, no estimates of carcass or loin quality measures are presented for that treatment. Data collected over a period of days were also analyzed as a splitplot. Contrasts were made between the Control and added tocopherol diets, Control and alpha-tocopherol, Control and gamma-tocopherol, and alpha- versus gamma-tocopherol.

lambs [2] = assay: Growth performance in lambs; conditions: for Interim BW: after 20 days on test; for Final BW: after 43 days on test
Description: The effects of diet supplementation with alpha-tocopherol and gamma-tocopherol on tissue oxidation and storage life of fresh meat from lambs fed a diet supplemented with tocopherol was studied. A total of 42 weaned Western white-faced lambs (4 ewes, 38 males) were used in a feeding trial. The lambs were housed two per pen in a slatted floor barn and initially fed chopped oat hay, then gradually acclimated to a beet pulp-based basal diet. The basal ration consisted of 82.2% beet pulp pellets, 9.5% chopped oat hay, 6.0% liquid molasses, 1.5% soybean meal, 0.8% mineralized salt, and monensin (30 g/ton). All lambs were given ad libitum access to the basal diet.
The basal diet was fed for 60 days and on days 61 and 62, lambs were weighed to calculate initial body weight. Lambs were blocked by weight, without regard to gender, and randomly assigned within weight blocks to pens, and pens were randomly assigned to dietary treatments (14 lambs/treatment).
(§6) Interim and final weights were taken on two consecutive days after 20 and 43 days on test, respectively, to calculate average daily weight gain (ADG) and feed conversion. On the 45th day on test, the lambs were transported to a commercial packing plant and slaughtered the following morning. Standard carcass data were collected.
The fourth column is standard error of measurement (SEM). The last two columns are P values for the statistical comparison of the alpha group versus the gamma group, and the control group versus the alpha and gamma groups.

lambs [3] = assay: Lamb carcass characteristics; conditions: for Bone maturity: A0 = 1.0 ... A90 = 1.9; for Leg score: high Prime = 15 ... low Choice = 10; for Adjusted fat / Body wall thickness / Dressing percentage / Quality grade / Rib eye area / Yield grade: in vivo; for Hot carcass weight: lambs, 500 IU/kg/day for 45 days; for Flank streaking: trace = 1, slight = 2, small = 3
Description: as §6
Characteristics included hot carcass weight, adjusted fat, rib eye area, and body wall thickness. As indicated in the last two columns under Contrasts (P values), there were no statistically significant differences (P<0.05) in carcass measurements between the alpha and gamma groups or between the control group and the alpha and gamma groups.

pigs [4] = assay: Oxidative rancidity of pork chops (2-thiobarbituric acid, TBA number)
Method: as §2
(§7) Pork chops (2.5 cm) were cut from vacuum-packaged pork loins that had been stored for 21 days at 1 degree C. Freshly cut chops were placed on styrofoam trays with DriLoc (V 50 pads) and overwrapped with PVC (23,250 cc/m 2 /24 hours oxygen permeability). Pork chops were placed in simulated retail display at 2±3 degrees C. for six days. Product temperature was monitored during the display period. Chops were analyzed for lightness (L*), redness (a*), and yellowness (b*) using Illuminant C or D65 on a Minolta Chroma Meter. Three readings per chop were taken on display days 0, 1, 2, 3, 4 and 5.
(§8) Determination of pH was made on days 0 and 5 as an indication of pork spoilage. Oxidative rancidity was measured using 2-Thiobarbituric acid to determine TBA number. Final values were expressed as mg malonaldehyde per 1000 grams of meat. Purge was determined on the vacuum-packaged pork loins.
as §5

pigs [5] = assay: Minolta Chroma Meter L*, a*, b* of pork chops in simulated retail display
Method: as §2, §7, §5

pigs [6] = assay: Pork loin pH in swine feeding trial
Method: as §1, §2, §3, §4, §8, §5

[7] = pork loin, all supplemented levels pooled
[8] = pork, all supplemented levels pooled
[9] = dietary level 300 IU, listed as gamma-tocopherol

## Cc1c(C)c2c(c(C)c1O)CC[C@@](C)(CCC[C@H](C)CCC[C@H](C)CCCC(C)C)O2 [Alpha-tocopherol, alpha-tocopherol, reference compound]
Pigs [1]; dietary level 300 IU
  Japanese Color Score: 3.56^ab
Pigs [1]; dietary level 450 IU
  Japanese Color Score: 3.94^ab
Pigs [1]; [7]
  Japanese Color Score: 3.75
Lambs [2]; 1st 20 Days
  Gain: feed: 124.2 g/kg
  Intake: 1.43 kg/day
Lambs [2]; 1st 20 Days, 500 IU/kg/day
  ADG: 164.1 g/day
Lambs [2]; 2nd 23 Days
  ADG: 190.9^b g/d
  Gain: feed: 127.1^a g/kg
  Intake: 1.54 kg/day
Lambs [2]; 2nd 23 Days, listed as alpha-tocopherol
  ADG: 190.9 g/day
Lambs [2]; Overall
  ADG: 182.3 g/day
  Gain: feed: 126.0^a g/kg
  Intake: 1.49 kg/day
Lambs [2]
  Interim BW: 52.1 kg
  Final BW: 56.6 kg
Lambs [3]
  Bone maturity: 1.47^b
  Leg score: 10.8
  Adjusted fat: 0.55 cm
  Body wall thickness: 2.13 cm
  Dressing percentage: 48.2
  Quality grade: 5.27
  Rib eye area: 5.63 sq. cm
  Yield grade: 2.42
  Hot carcass weight: 27.4 kg
  Flank streaking: 3.02^a
Pigs [4]; dietary level 300 IU
  Oxidative stability (5 day storage TBA): .134 mg malonaldehyde per 1000 grams of meat
Pigs [4]; dietary level 450 IU
  Oxidative stability (5 day storage TBA): .072 mg malonaldehyde per 1000 grams of meat
Pigs [4]; [8]
  Oxidative stability (5 day storage TBA): .103 mg malonaldehyde per 1000 grams of meat
Pigs [5]; all supplemented levels pooled
  Minolta L* values (after 5 day retail display): 43.6
  Minolta a* values (after 5 day retail display): 7.49
  Minolta b* values (after 5 day retail display): 4.95
Pigs [5]; dietary level 300 IU
  Minolta L* values (after 5 day retail display): 45.3^ab
  Minolta a* values (after 5 day retail display): 8.40^a
  Minolta b* values (after 5 day retail display): 5.93^ab
Pigs [5]; dietary level 450 IU
  Minolta L* values (after 5 day retail display): 41.9^bc
  Minolta a* values (after 5 day retail display): 6.58^b
  Minolta b* values (after 5 day retail display): 3.97^bc
Pigs [6]; all supplemented levels pooled
  PH: 5.97
Pigs [6]; dietary level 300 IU
  PH: 6.08^ab
Pigs [6]; dietary level 450 IU
  PH: 5.85^b

## Cc1c(O)cc2c(c1C)O[C@](C)(CCC[C@H](C)CCC[C@H](C)CCCC(C)C)CC2 [Gamma-tocopherol, gamma-tocopherol]
Pigs [1]; dietary level 150 IU
  Japanese Color Score: 3.18^ab
Pigs [1]; dietary level 300 IU
  Japanese Color Score: 4.32^a
Pigs [1]; dietary level 450 IU
  Japanese Color Score: 3.56^ab
Pigs [1]; [7]
  Japanese Color Score: 3.94
Lambs [2]; 1st 20 Days
  Gain: feed: 132.6 g/kg
  Intake: 1.35 kg/day
Lambs [2]; 1st 20 Days, 500 IU/kg/day
  ADG: 173.5 g/day
Lambs [2]; 2nd 23 Days
  ADG: 264.0^a g/d
  Gain: feed: 187.2^b g/kg
  Intake: 1.45 kg/day
Lambs [2]; 2nd 23 Days, listed as gamma-tocopherol
  ADG: 264.0 g/day
Lambs [2]; Overall
  ADG: 221.9 g/day
  Gain: feed: 162.8^b g/kg
  Intake: 1.40 kg/day
Lambs [2]
  Interim BW: 53.0 kg
  Final BW: 59.1 kg
Lambs [3]
  Bone maturity: 1.62^ab
  Leg score: 10.8
  Adjusted fat: 0.47 cm
  Body wall thickness: 1.92 cm
  Dressing percentage: 46.8
  Quality grade: 5.23
  Rib eye area: 5.62 sq. cm
  Yield grade: 2.19
  Hot carcass weight: 27.7 kg
  Flank streaking: 2.40^ab
Pigs [4]; dietary level 150 IU
  Oxidative stability (5 day storage TBA): .177 mg malonaldehyde per 1000 grams of meat
Pigs [4]; dietary level 300 IU
  Oxidative stability (5 day storage TBA): .080 mg malonaldehyde per 1000 grams of meat
Pigs [4]; [9]
  Oxidative stability (5 day storage TBA): 0.080 mg malonaldehyde per 1000 gram
Pigs [4]; dietary level 450 IU
  Oxidative stability (5 day storage TBA): .125 mg malonaldehyde per 1000 grams of meat
Pigs [4]; [8]
  Oxidative stability (5 day storage TBA): .102 mg malonaldehyde per 1000 grams of meat
Pigs [5]; all supplemented levels pooled
  Minolta L* values (after 5 day retail display): 41.4
  Minolta a* values (after 5 day retail display): 8.13
  Minolta b* values (after 5 day retail display): 4.48
Pigs [5]; dietary level 150 IU
  Minolta L* values (after 5 day retail display): 42.4^bc
  Minolta a* values (after 5 day retail display): 7.57^ab
  Minolta b* values (after 5 day retail display): 5.13^bc
Pigs [5]; dietary level 300 IU
  Minolta L* values (after 5 day retail display): 39.7^c
  Minolta a* values (after 5 day retail display): 8.20^a
  Minolta b* values (after 5 day retail display): 3.85^c
Pigs [5]; [9]
  Minolta a* values (after 5 day retail display): 8.40
Pigs [5]; dietary level 450 IU
  Minolta L* values (after 5 day retail display): 43.0^b
  Minolta a* values (after 5 day retail display): 8.05^a
  Minolta b* values (after 5 day retail display): 5.12^bc
Pigs [6]; all supplemented levels pooled
  PH: 6.11
Pigs [6]; dietary level 150 IU
  PH: 5.99^ab
Pigs [6]; dietary level 300 IU
  PH: 6.28^a
Pigs [6]; dietary level 450 IU
  PH: 5.94^b

Reference: patent US6977269B1, “Method of improving animal tissue quality” (Pioneer Hi-Bred International, Inc, priority 2001, dated 2005)
